Measured values published in US20250295795A1, “PEPTIDE” (priority 2021, published 2025).
“Also recorded” adds a separate entry of the source.

What was measured:
[1] = MTT assay of metabolic activity (cell viability); type: cell-based; conditions: human, HeLa cells, 1 μM for 60 min
Procedure: Toxicity is a concern with potent intracellular delivery agents. We used an MTT assay to measure the metabolic activity of Hela cells treated with 1 μM tri-Tat A or tri-cTat B for 60 min (FIG. 4d). […] Tri-Tat A is slightly more toxic, which is consistent with the observation that the trimer forms membrane pores (cells 84.4% viable, 4 h post-treatment; 80.2% viable, 3 days post-treatment). The favourable uptake mechanism and low toxicity of tri-cTat B lead us to investigate this agent for its potential to transport biomacromolecular cargos into cells.

CHO cells = assay: Live cell confocal microscopy: cellular uptake and intracellular distribution of Tat conjugates in CHO cells; type: cell-based, Chinese hamster; conditions: 1 μM, 60 min, serum-free DMEM, post-wash
Procedure: The cellular uptake and intracellular distribution of Tat-trimers and monomeric controls was investigated by performing live cell confocal microscopy of HeLa (human, cervical cancer) and CHO (Chinese hamster, epithelial) cells incubated with Tat conjugates (1 μM) in serum-free DMEM (60 min). Following washing, images were acquired using a Zeiss 780 confocal microscope fitted with an incubation chamber (FIG. 2). In accordance with observations that free Tat in the cytosol readily enters the nucleus and strongly binds to nucleoli,^29 homogenous staining of cytoplasm and nucleoli were considered as indicative of cells having accumulated free conjugate, not confined to endosomes, for quantification purposes. […] The uptake and intracellular distribution of tri-Tat A is similar in live Hela and CHO cells (FIG. 2b,d,e).
HeLa and CHO cells were cultured in DMEM supplemented with 10% FBS and penicillin/streptomycin. For post-wash experiments, Tat conjugate was added to the cells in serum free medium, cells incubated at 37° C. in an atmosphere of 5% CO2, culture medium removed at the desired time point, cells washed and transferred to the microscope for imaging. For time course or pre-wash experiments, cells were transferred to the microscope (incubation chamber at 37° C., 5% CO2) and Tat conjugate added directly to cell medium and cells imaged at desired time points. Co-delivery experiments were conducted by adding peptide trimer immediately followed by cargo into serum free medium. Samples were visualised using a Zeiss LSM 780 inverted confocal microscope fitted with a XLmultiS1 incubation chamber and Plan-Apochromat 63×/1.40 Oil DIC M27 objective. Images were analysed using ImageJ software. Digital adjustments and image processing are consistent throughout the manuscript, unless otherwise stated in the figure legend. Statistical analysis was carried out using GraphPad Prism 7 software and all data used for statistical analysis consists of measurements from distinct cells. Where applicable a parametric, unpaired, two-tailed t-test was used for statistical testing.

HeLa cells = assay: Membrane integrity / porosity: propidium iodide uptake after trimer treatment; type: cell-based, human; conditions: 1 μM trimer; 40 μM PI added 20 min after trimer
Procedure: To assess membrane integrity, 40 μM propidium iodide (PI; a cell impermeable dye), was added to Hela cells 20 min after the addition of the peptide trimer.

N=C(N)NCCC[C@@H]1NC(=O)[C@H](CCCNC(=N)N)NC(=O)[C@H](CCCNC(=N)N)NC(=O)[C@H](CCC(N)=O)NC(=O)[C@H](CCCNC(=N)N)NC(=O)[C@H](CCCNC(=N)N)NC(=O)[C@H](CCCCN)NC(=O)[C@H](CCCCN)NC(=O)[C@H](CCCNC(=N)N)NC(=O)[C@H](CCCCn2cc(COCC(COCc3cn(CCCCCCNC(=O)c4ccc5c(c4)C(=O)OC54c5ccc(N)c(S(=O)(=O)O)c5Oc5c4ccc(N)c5S(=O)(=O)O)nn3)(COCc3cn(CCCC[C@@H]4NC(=O)CC[C@@H](C(N)=O)NC(=O)[C@H](CCCNC(=N)N)NC(=O)[C@H](CCCNC(=N)N)NC(=O)[C@H](CCCNC(=N)N)NC(=O)[C@H](CCC(N)=O)NC(=O)[C@H](CCCNC(=N)N)NC(=O)[C@H](CCCNC(=N)N)NC(=O)[C@H](CCCCN)NC(=O)[C@H](CCCCN)NC(=O)[C@H](CCCNC(=N)N)NC4=O)nn3)COCc3cn(CCCC[C@@H]4NC(=O)CC[C@@H](C(N)=O)NC(=O)[C@H](CCCNC(=N)N)NC(=O)[C@H](CCCNC(=N)N)NC(=O)[C@H](CCCNC(=N)N)NC(=O)[C@H](CCC(N)=O)NC(=O)[C@H](CCCNC(=N)N)NC(=O)[C@H](CCCNC(=N)N)NC(=O)[C@H](CCCCN)NC(=O)[C@H](CCCCN)NC(=O)[C@H](CCCNC(=N)N)NC4=O)nn3)nn2)NC(=O)CC[C@@H](C(N)=O)NC1=O (stereo partly shown) [tri-cTat B]
viability at 4 h, 1 µM ([1]; 4 h post-treatment): 94.3%
viability at 72 h, 1 µM ([1]; 3 days post-treatment): 96.5%
cellular uptake and intracellular distribution (CHO cells): taken up into the cytosol and nucleoli
propidium iodide (PI) uptake / pore formation (HeLa cells): does not form pores in the plasma membrane; also recorded: PI negative
